Measurements reported in US20250361269A1, “PEPTIDE EXHIBITING MUSCLE LOSS PREVENTION AND MUSCLE MASS PROMOTION ACTIVITIES, AND USE THEREOF” (CAREGEN CO., LTD., priority 2022, published 2025).

Experiments:
C2C12 cells [1] = experiment: Western blotting of late differentiation marker MyHC in C2C12 myoblasts; assay type: cell-based, mouse; settings: 5, 50, or 100 ug/ml peptide, after 7 days in differentiation medium, vs CM group
Method: The C2C12 cells were cultured in a DMEM supplemented with 1% P/S and 2% BCS. When the cell confluency reached 70-80%, the cells were seeded into 6-well culture plates. Afterwards, when the cell confluency in the 6-well culture plate reached 100%, the culture medium was replaced with a differentiation medium (supplemented with 1% P/S and 2% horse serum), and 5, 50, or 100 ug/ml of the peptide of SEQ ID NO: 1 was added thereto. Afterwards, the differentiation medium and the same amount of the peptide of SEQ ID NO: 1 were replaced and added, respectively, once every two days. […] These proteins were then quantified by using a BCA kit. SDS-PAGE was performed on samples containing these proteins to separate the respective proteins which were then electrotransferred onto a membrane. The membrane to which the proteins were attached was blocked by treating with 5% skim milk, and primary antibodies were allowed for a reaction overnight at 4° C. After washing with PBS-T, secondary antibodies were allowed for a reaction at room temperature for 1 hour. After washing with PBS-T again, the proteins were detected by using Gel Doc (Bio-Rad, Hercules, CA, USA) and Western detection reagents (Elpis Biotech, Daejeon, Korea). […]

C2C12 cells [2] = experiment: Western blotting of early differentiation markers in C2C12 myoblasts; assay type: cell-based, mouse; settings: 5, 50, or 100 ug/ml peptide, after three days in differentiation medium, vs CM group
Method: In this example, by evaluating changes in the expression of an early differentiation marker protein of C2C12 cells, which are mouse myoblasts, it was to confirm the effects of the peptide according to an example on the differentiation of myoblasts into muscle cells/muscle fibers at an early differentiation stage.
The C2C12 cells were cultured in a DMEM supplemented with 1% P/S and 2% BCS. When the cell confluency reached 70-80%, the cells were seeded into 6-well culture plates. Afterwards, when the cell confluency in the 6-well culture plate reached 100%, the culture medium was replaced with a differentiation medium (supplemented with 1% P/S and 2% horse serum), and 5, 50, or 100 ug/ml of the peptide of SEQ ID NO: 1 was added thereto. Afterwards, the differentiation medium and the same amount of the peptide of SEQ ID NO: 1 were replaced and added, respectively, once every two days. After three days from the first day of medium replacement, the culture was lysed by adding a dissolution buffer thereto, and proteins were obtained by centrifugation at 4° C. and 12,000 rpm for 30 minutes. These proteins were then quantified by using a BCA kit. […] After washing with PBS-T again, the proteins were detected by using Gel Doc (Bio-Rad, Hercules, CA, USA) and Western detection reagents (Elpis Biotech, Daejeon, Korea). […]

C2C12 cells [3] = experiment: Immunofluorescence of a-actinin in C2C12 myoblasts; assay type: cell-based, mouse; settings: after 7 days in differentiation medium, vs CM group
[4] = tested on: muscle tissue, muscle damage induced by BaCl2; experiment: H&E staining of muscle tissue from BaCl2-induced muscle damage model; assay type: in vivo, C57BL/6 mouse; settings: 20 mg peptide orally, six times, Day 7 after BaCl2 muscle damage
Method: (§1) 50 μl of a 1.2% (w/v) BaCl2 aqueous solution was injected into the tibialis anterior (TA) muscle of a 8-week-old male C57BL/6 mouse to induce muscle damage for 1 day. Afterwards, 20 mg of the peptide of SEQ ID NO: 1 was administered orally at a concentration of 0.1 mg/μl at 1-day intervals for a total of six times to the mouse with induced muscle damage. For a positive control group, 0.5 ug of IGF-I was injected intramuscularly at a concentration of 0.01 ug/μl. On Day 7 after inducing the muscle damage, the mouse was sacrificed, and the changes in the TA muscle were visually observed and the mouse was weighed. A non-treated group (Non) was used as a control group, a group (N.C) in which only muscle damage was induced by BaCl2 was used as a negative control group, and a group (P.C) in which muscle damage was induced by BaCl2 and then treated with IGF-I was used as a positive control group. Muscle tissue obtained from the mouse with induced muscle damage of Example 4-1 was washed with PBS at room temperature and then fixed with 4% paraformaldehyde (PFA). Afterwards, the fixed muscle tissue was washed three times with PBS and dehydrated by using a gradient ethanol series (from 70% to 100%). A sample of the muscle tissue was sectioned into 4 μm sections. […]

[5] = tested on: muscle tissue, muscle damage induced by BaCl2; experiment: Sirius red staining of muscle tissue from BaCl2-induced muscle damage model; assay type: in vivo, C57BL/6 mouse; settings: 20 mg peptide orally, six times, Day 7 after BaCl2 muscle damage
Method: as §1

C2C12 cells [6] = experiment: Immunofluorescence of myogenin (MyoG) in C2C12 myoblasts; assay type: cell-based, mouse; settings: 100 ug/ml peptide, after three days in differentiation medium
Method: C2C12 cells were cultured in a DMEM supplemented with 1% P/S and 2% BCS. When the cell confluency reached 70-80%, the cells were seeded into a 6-well culture plate. Afterwards, when the cell confluency in the 6-well culture plate reached 100%, the culture medium was replaced with a differentiation medium (supplemented with 1% P/S and 2% horse serum), and 100 ug/ml of the peptide of SEQ ID NO: 1 was added thereto. Afterwards, the differentiation medium and 100 ug/ml of the peptide were replaced and added, respectively, once every two days. After three days from the first day of medium replacement, the cultured cells were fixed with 4% paraformaldehyde (PFA) at room temperature for 10 minutes and permeabilized with 0.1% triton X-100 for 5 minutes. Afterwards, the fixed cells were mixed with PBS, 10% FBS, and 0.1% triton X-100 for blocking at room temperature for 1 hour, and then treated with primary antibodies (MyoG, Santa Cruz, USA). The resulting cells were incubated for 1 hour at room temperature. Afterwards, the cells were washed, and incubated again with secondary antibodies (goat anti-mouse IgG-TR, Santa Cruz, USA) at room temperature for 30 minutes. Afterwards, the cell nuclei were stained with DAPI (Santa Cruz, USA) and observed under a LEICA fluorescence microscope (TCS SP8, LEICA, Germany).

[7] = tested on: muscle tissue, muscle damage induced by BaCl2; experiment: Western blotting of protein expression in muscle tissue from BaCl2-induced muscle damage model; assay type: in vivo, C57BL/6 mouse; settings: 20 mg peptide orally, six times, Day 7 after BaCl2 muscle damage
Method: 50 μl of a 1.2% (w/v) BaCl2 aqueous solution was injected into the tibialis anterior (TA) muscle of a 8-week-old male C57BL/6 mouse to induce muscle damage for 1 day. Afterwards, 20 mg of the peptide of SEQ ID NO: 1 was administered orally at a concentration of 0.1 mg/μl at 1-day intervals for a total of six times to the mouse with induced muscle damage. For a positive control group, 0.5 ug of IGF-I was injected intramuscularly at a concentration of 0.01 ug/μl. On Day 7 after inducing the muscle damage, the mouse was sacrificed, and the changes in the TA muscle were visually observed and the mouse was weighed. A non-treated group (Non) was used as a control group, a group (N.C) in which only muscle damage was induced by BaCl2 was used as a negative control group, and a group (P.C) in which muscle damage was induced by BaCl2 and then treated with IGF-I was used as a positive control group. The muscle tissue obtained from the mouse with the induced muscle damage of Example 4-1 was lysed by using homogenizer, and the lysate was dissolved by adding a dissolution buffer thereto. The resulting product was centrifuged at 4° C. and 12,000 rpm for 30 minutes to obtain proteins which were then quantified by using a BCA kit. SDS-PAGE was performed on samples containing these proteins to separate the respective proteins which were then electrotransferred onto a membrane. The membrane to which the proteins were attached was blocked by treating with 5% skim milk, and primary antibodies were allowed for a reaction overnight at 4° C. After washing with PBS-T, secondary antibodies were allowed for a reaction at room temperature for 1 hour. After washing with PBS-T again, the proteins were detected by using Gel Doc (Bio-Rad, Hercules, CA, USA) and Western detection reagents (Elpis Biotech, Daejeon, Korea). Here, anti-MyHC (Santa Cruz, USA), anti-α-actinin (Santa Cruz, USA), anti-α-SMA (Abcam, UK), anti-IL-6 (Santa Cruz, USA), and anti-a-tubulin (Santa Cruz, USA) were used as the primary antibodies.

[8] = tested on: tibialis anterior (TA) muscle, muscle damage induced by BaCl2; experiment: Muscle mass of TA muscle in BaCl2-induced muscle damage animal model; assay type: in vivo, C57BL/6 mouse; settings: 20 mg peptide orally at 1-day intervals, six times; Day 7 after BaCl2 muscle damage
Method: In this example, an animal model of muscle damage induced by BaCl2 was used to determine the effect of the peptide according to an embodiment on the muscle loss prevention, by evaluating changes in muscle mass, areas of infiltration of immune cells in muscle tissue, levels of accumulated collagen, and expression levels of proteins constituting muscle fibers and inflammatory proteins. 50 μl of a 1.2% (w/v) BaCl2 aqueous solution was injected into the tibialis anterior (TA) muscle of a 8-week-old male C57BL/6 mouse to induce muscle damage for 1 day. Afterwards, 20 mg of the peptide of SEQ ID NO: 1 was administered orally at a concentration of 0.1 mg/μl at 1-day intervals for a total of six times to the mouse with induced muscle damage. For a positive control group, 0.5 ug of IGF-I was injected intramuscularly at a concentration of 0.01 ug/μl. On Day 7 after inducing the muscle damage, the mouse was sacrificed, and the changes in the TA muscle were visually observed and the mouse was weighed. A non-treated group (Non) was used as a control group, a group (N.C) in which only muscle damage was induced by BaCl2 was used as a negative control group, and a group (P.C) in which muscle damage was induced by BaCl2 and then treated with IGF-I was used as a positive control group.

## EAEYEHL [peptide of SEQ ID NO: 1]
C2C12 cells [1]
  expression of MyHC, late differentiation marker of myoblasts: increased
C2C12 cells [2]
  expression of Myf5, early differentiation marker of myoblasts: increased
  expression of myogenin (MyoG), early differentiation marker of myoblasts: increased
C2C12 cells [3]
  expression of a-actinin, late differentiation marker of myoblasts: increased
[4]
  area of infiltration of immune cells in the tissue: reduced
[5]
  accumulation of collagen in the tissue: reduced
C2C12 cells [6]
  expression of myogenin (MyoG): increased
  expression of myogenin (MyoG) in the nuclear region of myoblasts: increased
[7]
  expression of IL-6 in damaged tissue: decreased
  expression of MyHC, protein constituting muscle fibers, in damaged tissue: increased
  expression of α-SMA, inflammatory protein, in damaged tissue: decreased
  expression of α-actinin in damaged tissue: increased
[8]
  muscle mass of the TA muscle: increased
